Reference: patent US20090016959A1, “Delivery of antibodies to the central nervous system” (priority 2005, published 2009)
Residues, ends and D or L forms follow the SMILES beside them.

Columns and labels:
[1] = test system: bovine brain capillary endothelial cells; assay: In vitro BBB model, first level of selection: peptides in lower chamber visualized by Coomassie blue; type: in vitro ADME; conditions: first level of screening; 90 minutes at 37° C
Source text: (§1) This BBCEC medium was changed three times a week.
The medium was changed twice a week.

[2] = test system: bovine brain capillary endothelial cells; assay: In vitro BBB model, second screening level with iodinated peptides (cpm ratios); type: in vitro ADME
Experimental: as §1
Two iodo-beads were used for each protein.
Results were expressed as cpm ratios. […] The ratio between the number of [^125I]-peptide found in the bottom chamber of filters covered with or without endothelial cells was also calculated (+cells/−cells).

[3] = test system: in vitro model of the blood brain barrier; assay: Transcytosis capacity across the in vitro BBB model (Pe); type: in vitro ADME, bovine
Experimental: as §1
Transcytosis capacity of Aprotinin-Paclitaxel conjugate was determined and is reported below in Table 5.

| Ratios −cells/initial [2] | Ratios +cells/−cells ([2]; [125I]-peptide in bottom chamber of filters with versus without endothelial cells) | Ratios +cells/initial ([2]; [125I]-peptide, cpm in bottom chamber / total cpm added, filter covered with endothelial cells, 90 minutes at 37° C) | Molecule | peptides detected in the lower side of the chambers by Coomassie blue staining [1] | Transcytosis (Pe 10^−3 cm/min) [3] |
| --- | --- | --- | --- | --- | --- |
| 0.072 | 0.37 | 0.027 | C[C@@H](O)[C@H](NC(=O)[C@H](CCCCN)NC(=O)[C@H](Cc1ccccc1)NC(=O)[C@H](CC(N)=O)NC(=O)[C@H](CC(N)=O)NC(=O)[C@H](CCCNC(=N)N)NC(=O)[C@H](CCCCN)NC(=O)CNC(=O)[C@H](CCCNC(=N)N)NC(=O)[C@H](CS)NC(=O)[C@H](CS)NC(=O)CNC(=O)[C@H](Cc1ccc(O)cc1)NC(=O)[C@H](Cc1ccccc1)NC(=O)[C@H](Cc1ccccc1)NC(=O)[C@@H](NC(=O)[C@@H](N)CS)[C@@H](C)O)C(=O)N[C@@H](CCC(=O)O)C(=O)N[C@@H](CCC(=O)O)C(=O)N[C@@H](Cc1ccc(O)cc1)C(=O)O [Peptide 71] (H-CTFFYGCCRGKRNNFKTEEY-OH; N-terminus and C-terminus assumed) | detected in the lower side of the chambers | – |
| – | – | – | aprotinin | – | 0.2 10^−3 cm/min |
